Data published in ChEMBL document CHEMBL5360558, “Molecular design, synthesis and anticancer activity of new thiopyrano[2,3-d]thiazoles based on 5-hydroxy-1,4-naphthoquinone (juglone)” (Eur J Med Chem, 2023).

What was measured:
[1] = test system: MDA-MB-435; assay: Anticancer activity against human MDA-MB-435 cells assessed as cell growth at 10 uM incubated for 48 hrs by sulforhodamine B assay; assay type: functional; conditions: read-out: Activity
[2] = test system: A498; assay: Anticancer activity against human A498 cells assessed as cell growth at 10 uM incubated for 48 hrs by sulforhodamine B assay; assay type: functional; conditions: read-out: Activity
[3] = test system: SNB-75; assay: Anticancer activity against human SNB-75 cells assessed as cell growth at 10 uM incubated for 48 hrs by sulforhodamine B assay; assay type: functional; conditions: read-out: Activity
[4] = test system: HCT-116; assay: Cytotoxicity against human HCT-116 cells assessed as cell growth inhibition incubated for 72 hrs by MTT assay; assay type: functional, cell-based; conditions: HCT-116, 72 h
[5] = Antileukemic activity against human CLL cell assessed as cell growth inhibition incubated for 72 hrs in presence of BST by MTT assay; assay type: functional, cell-based
[6] = test system: SK-MEL-2; assay: Anticancer activity against human SK-MEL-2 cells assessed as cell growth at 10 uM incubated for 48 hrs by sulforhodamine B assay; assay type: functional; conditions: read-out: Activity
[7] = test system: KB 3-1; assay: Cytotoxicity against human KB 3-1 cells assessed as cell growth inhibition incubated for 72 hrs by MTT assay; assay type: functional, cell-based; conditions: KB 3-1, 72 h
[8] = test system: K562; assay: Cytotoxicity against human K562 cells assessed as cell growth inhibition incubated for 72 hrs by MTT assay; assay type: functional, cell-based; conditions: K562, 72 h
[9] = Antileukemic activity against human CLL cell assessed as cell growth inhibition incubated for 72 hrs by MTT assay; assay type: functional, cell-based
[10] = Cytotoxicity against human Lymphocyte cells assessed as cell growth inhibition incubated for 72 hrs by MTT assay; assay type: toxicity, cell-based; conditions: lymphocytes
[11] = test system: M14; assay: Anticancer activity against human M14 cells assessed as cell growth at 10 uM incubated for 48 hrs by sulforhodamine B assay; assay type: functional; conditions: read-out: Activity
[12] = Acute toxicity in C57BL/6 mouse assessed as animal death at 20 mg/kg,ip administration observed after 8 days; assay type: organism-based; conditions: in vivo, 192 h, time 8 day
[13] = (§1) Cytotoxicity against human HaCaT cells assessed as cell growth inhibition incubated for 72 hrs by MTT assay; assay type: toxicity, cell-based; conditions: HaCaT cells
[14] = Acute toxicity in C57BL/6 mouse assessed as animal death at 20 mg/kg,ip administration observed after 13 days; assay type: organism-based; conditions: in vivo, 312 h, time 13 day
[15] = Acute toxicity in C57BL/6 mouse assessed as lymphocyte count at 20 mg/kg,ip administration and observed after 22 days; assay type: organism-based; conditions: in vivo, 528 h, time 22 day
[16] = Acute toxicity in C57BL/6 mouse assessed as anemia at 20 mg/kg,ip administration observed after 22 days; assay type: organism-based; conditions: in vivo, 528 h, time 22 day
[17] = Antileukemic activity against human CLL cell assessed as cell growth inhibition incubated for 72 hrs during remission period by MTT assay; assay type: functional, cell-based
[18] = Cytotoxicity against human HCT116-p53-null cells assessed as cell growth inhibition incubated for 72 hrs by MTT assay; assay type: functional, cell-based
[19] = Acute toxicity in C57BL/6 mouse assessed as decrease in body mass at 20 mg/kg,ip administration observed after 6 days; assay type: organism-based; conditions: in vivo, 144 h, time 6 day
[20] = test system: SK-MEL-5; assay: Anticancer activity against human SK-MEL-5 cells assessed as cell growth at 10 uM incubated for 48 hrs by sulforhodamine B assay; assay type: functional; conditions: read-out: Activity
[21] = Cytotoxicity against mouse NIH3T3 cells assessed as cell growth inhibition incubated for 72 hrs by MTT assay; assay type: toxicity, cell-based
[22] = Acute toxicity in C57BL/6 mouse assessed as leukopenia at 20 mg/kg,ip administration observed after 22 days; assay type: organism-based; conditions: in vivo, 528 h, time 22 day
[23] = test system: COLO 205; assay: Anticancer activity against human COLO 205 cells assessed as cell growth at 10 uM incubated for 48 hrs by sulforhodamine B assay; assay type: functional; conditions: read-out: Activity
[24] = Acute toxicity in C57BL/6 mouse assessed as neutrophil count at 20 mg/kg,ip administration and observed after 22 days; assay type: organism-based; conditions: in vivo, 528 h, time 22 day
[25] = Acute toxicity in C57BL/6 mouse assessed as decrease in body mass at 6.6 mg/kg,ip administration; assay type: organism-based; conditions: in vivo
[26] = Cytotoxicity against mouse J774.2 cells assessed as cell growth inhibition incubated for 72 hrs by MTT assay; assay type: toxicity, cell-based
[27] = test system: Salmon testes DNA; assay: Displacement of methyl green from salmon sperm DNA assessed as DNA intercalation at 10 uM incubated for 24 hrs by fluorescence plate reader method relative to control; assay type: nucleic-acid assay; conditions: Salmo salar
[28] = test system: MCF7; assay: Cytotoxicity against human MCF7 cells assessed as cell growth inhibition incubated for 72 hrs by MTT assay; assay type: functional, cell-based; conditions: MCF7, 72 h
[29] = test system: BT-549; assay: Anticancer activity against human BT-549 cells assessed as cell growth at 10 uM incubated for 48 hrs by sulforhodamine B assay; assay type: functional; conditions: read-out: Activity
[30] = test system: SF-539; assay: Anticancer activity against human SF-539 cells assessed as cell growth at 10 uM incubated for 48 hrs by sulforhodamine B assay; assay type: functional; conditions: read-out: Activity
[31] = test system: UO-31; assay: Anticancer activity against human UO-31 cells assessed as cell growth at 10 uM incubated for 48 hrs by sulforhodamine B assay; assay type: functional; conditions: read-out: Activity
[32] = test system: HCT-15; assay: Anticancer activity against human HCT-15 cells assessed as cell growth at 10 uM incubated for 48 hrs by sulforhodamine B assay; assay type: functional; conditions: read-out: Activity
[33] = test system: Malme-3M; assay: Anticancer activity against human Malme-3M cells assessed as cell growth at 10 uM incubated for 48 hrs by sulforhodamine B assay; assay type: functional; conditions: read-out: Activity
[34] = test system: SF-295; assay: Anticancer activity against human SF-295 cells assessed as cell growth at 10 uM incubated for 48 hrs by sulforhodamine B assay; assay type: functional; conditions: read-out: Activity
[35] = test system: HOP-62; assay: Anticancer activity against human HOP-62 cells assessed as cell growth at 10 uM incubated for 48 hrs by sulforhodamine B assay; assay type: functional; conditions: read-out: Activity
[36] = test system: NCI-H322M; assay: Anticancer activity against human NCI-H322M cells assessed as cell growth at 10 uM incubated for 48 hrs by sulforhodamine B assay; assay type: functional; conditions: read-out: Activity
[37] = test system: UACC-257; assay: Anticancer activity against human UACC-257 cells assessed as cell growth at 10 uM incubated for 48 hrs by sulforhodamine B assay; assay type: functional; conditions: read-out: Activity
[38] = test system: HCC 2998; assay: Anticancer activity against human HCC 2998 cells assessed as cell growth at 10 uM incubated for 48 hrs by sulforhodamine B assay; assay type: functional; conditions: read-out: Activity
[39] = test system: SK-MEL-28; assay: Anticancer activity against human SK-MEL-28 cells assessed as cell growth at 10 uM incubated for 48 hrs by sulforhodamine B assay; assay type: functional; conditions: read-out: Activity
[40] = test system: RXF 393; assay: Anticancer activity against human RXF 393 cells assessed as cell growth at 10 uM incubated for 48 hrs by sulforhodamine B assay; assay type: functional; conditions: read-out: Activity
[41] = test system: OVCAR-8; assay: Anticancer activity against human OVCAR-8 cells assessed as cell growth at 10 uM incubated for 48 hrs by sulforhodamine B assay; assay type: functional; conditions: read-out: Activity
[42] = test system: SN12C; assay: Anticancer activity against human SN12C cells assessed as cell growth at 10 uM incubated for 48 hrs by sulforhodamine B assay; assay type: functional; conditions: read-out: Activity
[43] = test system: SNB-19; assay: Anticancer activity against human SNB-19 cells assessed as cell growth at 10 uM incubated for 48 hrs by sulforhodamine B assay; assay type: functional; conditions: read-out: Activity
[44] = test system: OVCAR-5; assay: Anticancer activity against human OVCAR-5 cells assessed as cell growth at 10 uM incubated for 48 hrs by sulforhodamine B assay; assay type: functional; conditions: read-out: Activity
[45] = test system: HaCaT; assay: as §1; assay type: toxicity, cell-based; conditions: hacat, 72 h
[46] = GSH reactivity of compound at pH 7.4 phosphate buffer assessed as GSH-adduct formation at 1 mM incubated for 1 hr in presence of sodium borohydride by spectrophotometric analysis; assay type: physicochemical; conditions: pH 7.4, 1 h, 1000 µM
[47] = GSH reactivity of compound at pH 7.4 phosphate buffer assessed as GSH-adduct formation at 1 mM incubated for 1 hr by spectrophotometric analysis; assay type: physicochemical; conditions: pH 7.4, 1 h, 1000 µM

| Activity [27] | SMILES | IC50 [4] | IC50 [7] | IC50 [8] | IC50 at 72 h [13] | IC50 [18] | IC50 at 72 h [21] | IC50 at 72 h [26] | IC50 [28] | also measured |
| --- | --- | --- | --- | --- | --- | --- | --- | --- | --- | --- |
| – | COc1cccc2c1C(=O)c1c(O)c3c(c(O)c1C2=O)C[C@@](O)(C(=O)CO)C[C@@H]3O[C@H]1C[C@H](N)[C@H](O)[C@H](C)O1 [DOXORUBICIN] | 0.58 µM | 0.56 µM | 0.59 µM | 4.56 µM | 0.63 µM | 0.72 µM | 0.56 µM | – | growth at 10 µM [1]: -82.6%; growth at 10 µM [2]: -75.1%; growth at 10 µM [3]: -76.1%; IC50 [5]: 8.6 µM; growth at 10 µM [6]: -82.6%; IC50 [9]: > 10 µM; IC50 at 72 h [10]: 10 µM; growth at 10 µM [11]: -71.6%; Activity [12]: Toxic; Activity [14]: Toxic; Activity [15]: 50.35%; Activity [16]: Toxic; IC50 [17]: 7.33 µM; Activity [19]: Toxic; growth at 10 µM [20]: -86.4%; Activity [22]: Toxic; growth at 10 µM [23]: -81.6%; Activity [24]: 45.05%; Activity [25]: Toxic |
| 11.8% | O=C1C2=C(C(=O)c3c(O)cccc31)C(CCc1ccccc1)c1sc(=O)[nH]c1S2 (stereo not given) | > 50 µM | > 50 µM | > 50 µM | – | > 50 µM | – | > 50 µM | > 50 µM | – |
| 66.4% | O=C1C2=C(C(=O)c3c(O)cccc31)C(c1cccs1)c1sc(=O)[nH]c1S2 (stereo not given) | 5.13 µM | 4.53 µM | 21.5 µM | – | 5.36 µM | 39.1 µM | 6.81 µM | 24.1 µM | growth at 10 µM [1]: -90.2%; growth at 10 µM [2]: -98.7%; growth at 10 µM [29]: -99.9%; growth at 10 µM [30]: -99.5%; growth at 10 µM [31]: -92.9%; growth at 10 µM [32]: -91.4%; growth at 10 µM [33]: -99.4%; growth at 10 µM [11]: -96.7%; growth at 10 µM [34]: -93.5%; growth at 10 µM [35]: -94.3%; growth at 10 µM [36]: -96.8%; growth at 10 µM [37]: -93.1%; growth at 10 µM [38]: -96.8%; growth at 10 µM [39]: -97.2%; growth at 10 µM [40]: -97.4%; growth at 10 µM [20]: -96.9%; growth at 10 µM [41]: -94.6%; growth at 10 µM [42]: -92.8%; growth at 10 µM [43]: -99.5%; growth at 10 µM [44]: -93% |
| 42.5% | CC1(C)C2=C(Sc3[nH]c(=O)sc31)C(=O)c1cccc(O)c1C2=O | 12.9 µM | 23.4 µM | 26.8 µM | > 50 µM | 36.2 µM | > 50 µM | 26.4 µM | 9.48 µM | – |
| 55.4% | CN(C)c1ccc(C2C3=C(Sc4[nH]c(=O)sc42)C(=O)c2cccc(O)c2C3=O)cc1 (stereo not given) | 6.15 µM | 7.21 µM | 22.9 µM | > 50 µM | 8.83 µM | > 50 µM | 26.9 µM | > 50 µM | – |
| 11.8% | O=C1C2=C(C(=O)c3ccccc31)C(c1ccco1)c1sc(=O)[nH]c1S2 (stereo not given) | 5.44 µM | 5.54 µM | 30.9 µM | – | 6.28 µM | 38.9 µM | 6.77 µM | 29 µM | Activity [45]: Non-Toxic |
| – | O=C1C=CC(=O)c2c(O)cccc21 [JUGLONE] | 31.6 µM | 26.4 µM | – | – | – | – | 13.4 µM | – | Activity [46]: Active; Activity [47]: Active |
| 53.2% | O=C1C2=C(C(=O)c3c(O)cccc31)C(/C=C/c1ccccc1[N+](=O)[O-])c1sc(=O)[nH]c1S2 (stereo not given) | 0.94 µM | 6.94 µM | 15.7 µM | – | 2.16 µM | – | 0.83 µM | 0.95 µM | – |
